Test results taken from BindingDB's records for patent US20240140962 (Medshine Discovery, 2024).

What follows are compounds tested against Serine/threonine-protein kinase PLK1 (Homo sapiens, UniProt P53350) (assay: Evaluation of PLK1 Kinase Activity In Vitro).
Procedure: The 33P isotope-labeled kinase activity assay (Reaction Biology Corp) was used to determine the IC50 value to evaluate the inhibitory ability of the test compound to human PLK1 protein kinase.Buffer conditions: 20 mM HEPES (pH 7.5), 10 mM MgCl2, 1 mM EGTA, 0.01% Brij35, 0.02 mg/ml BSA, 0.1 mM Na3VO4, 2 mM DTT, 1% DMSOTest steps: At room temperature, the compounds to be tested were dissolved in DMSO to prepare a 10 mM solution for use. The substrate Casein was dissolved in a freshly prepared buffer (with a final concentration of 20 μM), and the tested PLK1 kinase (with a final concentration of 12 nM) was added thereto and mixed well. The acoustic wave pipetting system Echo 550 was used to add the mother solution of the test compound dissolved in DMSO to the above mixed reaction mixture according to the set final concentration gradient (the highest final concentration was 1 μM, 3-fold dilution, 10 gradients). After incubation at room temperature for 20 minutes, 33P-ATP (30 μM) was added, and after incubation at room temperature for 120 minutes, the reaction mixture was spotted on P81 ion exchange filter paper (Whatman #3698-915). After the filter paper was repeatedly washed with 0.75% phosphoric acid solution, the radioactivity of the phosphorylated substrate remaining on the filter paper was measured.

Chain of Serine/threonine-protein kinase PLK1 (P53350 whole entry): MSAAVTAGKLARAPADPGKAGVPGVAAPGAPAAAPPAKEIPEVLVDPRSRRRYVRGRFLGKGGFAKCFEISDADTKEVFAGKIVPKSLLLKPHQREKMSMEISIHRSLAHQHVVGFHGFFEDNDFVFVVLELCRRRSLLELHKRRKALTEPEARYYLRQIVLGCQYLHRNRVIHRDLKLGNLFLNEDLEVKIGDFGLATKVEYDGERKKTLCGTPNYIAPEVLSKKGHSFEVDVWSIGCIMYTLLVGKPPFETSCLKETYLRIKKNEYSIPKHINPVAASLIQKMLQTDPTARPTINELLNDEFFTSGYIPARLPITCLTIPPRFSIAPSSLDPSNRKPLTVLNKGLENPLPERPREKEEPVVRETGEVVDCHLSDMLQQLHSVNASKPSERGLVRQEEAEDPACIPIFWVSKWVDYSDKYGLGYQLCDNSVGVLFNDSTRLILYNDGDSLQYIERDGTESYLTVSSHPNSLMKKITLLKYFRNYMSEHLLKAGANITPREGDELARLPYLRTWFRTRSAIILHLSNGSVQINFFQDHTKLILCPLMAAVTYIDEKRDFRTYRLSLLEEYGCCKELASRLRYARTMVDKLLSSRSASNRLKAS

SMILES | IC50 [nM]
CSc1sc(C(N)=O)c2c1-c1nc(Nc3cc(N4CCNCC4)ccc3OC(F)(F)F)ncc1CC2 [US20240140962, Compound 7] | 3
CSc1sc(C(N)=O)c2c1-c1nc(Nc3cc(N4CCN(CCO)CC4)ccc3OC(F)(F)F)ncc1CC2 [US20240140962, Compound 8] | 1.7
COc1nnc(N2CCN(C)CC2)cc1Nc1ncc2c(n1)-c1c(SC)sc(C(N)=O)c1CC2 [US20240140962, Compound 17] | 5.9

Results, then the compound that gave them:

IC50 [nM] | SMILES
4.4 | CSc1sc(C(N)=O)c2c1-c1nc(Nc3cc(N4CCN(C)CC4)ccc3OC(F)(F)F)ncc1CC2 [US20240140962, Compound 1]
4.2 | CCOc1sc(C(N)=O)c2c1-c1nc(Nc3cc(N4CCN(C)CC4)ccc3OC(F)(F)F)ncc1CC2 [US20240140962, Compound 2]
4 | CN1CCN(c2ccc(OC(F)(F)F)c(Nc3ncc4c(n3)-c3csc(C(N)=O)c3CC4)c2)CC1 [US20240140962, Compound 12]
5.3 | CN1CCN(c2ccc(OC(F)(F)F)c(Nc3ncc4c(n3)-c3c(C5CC5)sc(C(N)=O)c3CC4)c2)CC1 [US20240140962, Compound 16]
2.8 | CN1CCN(c2ccc(OC(F)(F)F)c(Nc3ncc4c(n3)-c3c(-c5ccco5)sc(C(N)=O)c3CC4)c2)CC1 [US20240140962, Compound 20]
